Patent US20250113823A1, “Arthropod Control Compositions” (priority 2022, published 2025)
Where two headings read alike, the source gives them in different places.

Test system: Aedes aegypti
Assay: Warm Body assay, mosquito landings on treated warm body
Format: in vivo
Settings: for pest or weed control at 3.2 µg/mL / pest or weed control at 7.1 µg/mL / pest or weed control at 16 µg/mL / pest or weed control at 35.7 µg/mL / pest or weed control at 53 µg/mL / pest or weed control at 80 µg/mL / pest or weed control at 119 µg/mL / pest or weed control at 178 µg/mL / pest or weed control at 267 µg/mL / pest or weed control at 400 µg/mL / pest or weed control at 598 µg/mL / pest or weed control at 890 µg/mL / pest or weed control at 2000 µg/mL / pest or weed control at 4470 µg/mL / pest or weed control at 10000 µg/mL / pest or weed control at 1 % / pest or weed control at 0.0016 % / pest or weed control at 0.04 %: Aedes aegypti; for pest or weed control at 3.2 µg/mL / pest or weed control at 7.1 µg/mL / pest or weed control at 16 µg/mL / pest or weed control at 35.7 µg/mL / pest or weed control at 53 µg/mL / pest or weed control at 80 µg/mL / pest or weed control at 119 µg/mL / pest or weed control at 178 µg/mL / pest or weed control at 267 µg/mL / pest or weed control at 400 µg/mL / pest or weed control at 598 µg/mL / pest or weed control at 890 µg/mL / pest or weed control at 2000 µg/mL / pest or weed control at 4470 µg/mL / pest or weed control at 10000 µg/mL: read-out: Percentage of repellence of mosquitoes Aedes aegypti landing on the warm body; for pest or weed control at 7.1 µg/mL: 0.0071 mg/mL (Table 1); for pest or weed control at 53 µg/mL: 0.053 mg/mL (Table 1); for pest or weed control at 119 µg/mL: 0.119 mg/mL (Table 1); for pest or weed control at 267 µg/mL: 0.267 mg/mL (Table 1); for pest or weed control at 598 µg/mL: 0.598 mg/mL (Table 1); for pest or weed control at 4470 µg/mL: 4.47 mg/mL (Table 1); for pest or weed control at 1 % / mosquito landing within the two minutes of experiments: highest tested concentration, 1% (Table 3); for pest or weed control at 1 % / pest or weed control at 0.04 %: read-out: repellence; for pest or weed control at 0.0016 %: read-out: reduce the number of mosquito landings; for pest or weed control at 0.04 %: intermediate concentration of 0.04% (Table 3)
Protocol: The arthropod controlling effect according to the present invention is determined on mosquitoes using an adapted Warm Body assay as defined in Kröber T, Kessler S, Frei J, Bourquin M, Guerin PM. An in vitro assay for testing mosquito controlling compounds employing a warm body and carbon dioxide as a behavioral activator. J Am Mosq Control Assoc. 2010; 26: 381-386. Further information is provided in the accompanying examples
The controlling effect, repellence & spatial repellence, according to the present invention is determined by testing the Warm Body assay against the yellow fever mosquito, Aedes aegypti Rockefeller strain. […] Observations of controlling efficacy were made on host-seeking females of uniform age, 5 to 10 days old selected as mentioned in the publication mentioned hereinabove. Tested hungry females had access to 10% sugar solution but were not blood-fed. Further information is provided in the accompanying examples.
The published protocol has been adapted in not manually counting the landing mosquitoes but automatically using an automatic counting software, the switch from Anopheles gambiae to A. aegypti led to a decrease of mosquitoes' number placed in the tested cage due to the size difference (i.e. 30 mosquitoes instead of 50) and to an increase of lighting as A. aegypti is a diurnal mosquitoes (i.e. 150 lux instead of 4 lux). Further information is provided in the accompanying examples. […]
The controlling effect according to the present invention was assessed using an adapted Warm Body assay as defined in Kröber T, Kessler S, Frei J, Bourquin M, Guerin P M. 2010. J Am Mosq Control Assoc. 26: 381-386. In this in-vitro assay the number of mosquito landing on a warm body, simulating an attractive host treated with the tested stimuli, was measured in order to assess the repellence effect.
The published protocol has been adapted as the switch from Anopheles gambiae to Aedes aegypti led to a decrease of mosquitoes placed in the tested cage due to the size difference (i.e. 30 mosquitoes instead of 50) and to an increase of lighting since A. aegypti is a diurnal mosquitoes (i.e. 150 lux instead of 4 lux).
On the sandblasted glass Petri dish covering the warm body (28.3 cm^2), 100 μL of the compounds diluted at different concentrations in ethanol was applied. The number of mosquito landing on the warm body was counted for each stimulus and pure ethanol (solvent) as control.

[1] = lowest concentration of 0.0016% (Table 3)

CCCc1ccc2c(c1)OCC(=O)CO2 [compound 465, 7-propyl-1,5-benzoodioxepin-3-one]
Percentage of repellence of mosquitoes Aedes aegypti landing on the warm body (0.016 mg/mL (Table 3)): 4%
Percentage of repellence of mosquitoes Aedes aegypti landing on the warm body (0.4 mg/mL (Table 3)): 36%
Percentage of repellence of mosquitoes Aedes aegypti landing on the warm body (10 mg/mL (Table 3)): 87%

CC=Cc1cc(OC)c(OC)c(OC)c1 [compound 1123, 1,2,3-trimethoxy-5-[1-propen-1-yl]benzene]
pest or weed control at 3.2 µg/mL (0.0032 mg/mL (Table 1)): 28%
pest or weed control at 7.1 µg/mL: 10%
pest or weed control at 16 µg/mL (0.016 mg/mL (Table 1)): 63%
pest or weed control at 35.7 µg/mL (0.0357 mg/mL (Table 1)): 45%
pest or weed control at 53 µg/mL: 81%
pest or weed control at 80 µg/mL (0.08 mg/mL (Table 1)): 67%
pest or weed control at 119 µg/mL: 71%
pest or weed control at 178 µg/mL (0.178 mg/mL (Table 1)): 83%
pest or weed control at 267 µg/mL: 90%
pest or weed control at 400 µg/mL (0.4 mg/mL (Table 1)): 91%
pest or weed control at 598 µg/mL: 95%
pest or weed control at 890 µg/mL (0.89 mg/mL (Table 1)): 90%
pest or weed control at 2000 µg/mL (2 mg/mL (Table 1)): 98%
pest or weed control at 4470 µg/mL: 100%
pest or weed control at 10000 µg/mL (10 mg/mL (Table 1)): 98%

CC=Cc1cc(OC)c(O)c(OC)c1 [compound 1124, 2,6-dimethoxy-4-[prop-1-enyl]phenol]
pest or weed control at 3.2 µg/mL (0.0032 mg/mL (Table 1)): 26%
pest or weed control at 7.1 µg/mL: 40%
pest or weed control at 16 µg/mL (0.016 mg/mL (Table 1)): 62%
pest or weed control at 35.7 µg/mL (0.0357 mg/mL (Table 1)): 0%
pest or weed control at 53 µg/mL: 48%
pest or weed control at 80 µg/mL (0.08 mg/mL (Table 1)): 84%
pest or weed control at 119 µg/mL: 35%
pest or weed control at 178 µg/mL (0.178 mg/mL (Table 1)): 66%
pest or weed control at 267 µg/mL: 59%
pest or weed control at 400 µg/mL (0.4 mg/mL (Table 1)): 78%
pest or weed control at 598 µg/mL: 69%
pest or weed control at 890 µg/mL (0.89 mg/mL (Table 1)): 78%
pest or weed control at 2000 µg/mL (2 mg/mL (Table 1)): 95%
pest or weed control at 4470 µg/mL: 85%
pest or weed control at 10000 µg/mL (10 mg/mL (Table 1)): 98%

CC=Cc1cc(OC)c(OC)c(OC)c1 [compound 1126, 1,2,3-trimethoxy-5-prop-1-enylbenzene]
pest or weed control at 16 µg/mL (0.016 mg/mL (Table 3)): 31%
pest or weed control at 400 µg/mL (0.4 mg/mL (Table 3)): 71%
pest or weed control at 10000 µg/mL (10 mg/mL (Table 3)): 90%
pest or weed control at 1 %: > 90%

CC=Cc1cc(OC)c(O)c(OC)c1 [compound 1127, 2,6-dimethoxy-4-prop-1-enylphenol]
pest or weed control at 3.2 µg/mL (0.0032 mg/mL (Table 2)): 17%
pest or weed control at 16 µg/mL (0.016 mg/mL (Table 2)): 1%
pest or weed control at 35.7 µg/mL (0.0357 mg/mL (Table 2)): 0%
pest or weed control at 80 µg/mL (0.08 mg/mL (Table 2)): 0%
pest or weed control at 178 µg/mL (0.178 mg/mL (Table 2)): 30%
pest or weed control at 400 µg/mL (0.4 mg/mL (Table 2)): 42%
pest or weed control at 890 µg/mL (0.89 mg/mL (Table 2)): 59%
pest or weed control at 2000 µg/mL (2 mg/mL (Table 2)): 100%
pest or weed control at 10000 µg/mL (10 mg/mL (Table 2)): 96%

CC=Cc1cc(OC)ccc1OC [compound 1196, 1,4-dimethoxy-2-[1-propen-1-yl]benzene]
pest or weed control at 16 µg/mL: 57%
pest or weed control at 400 µg/mL: 74%
pest or weed control at 10000 µg/mL: 86%
pest or weed control at 0.0016 %: > 50%

COc1ccc(O)c(OC)c1OC [compound 1204, 2,3,4-trimethoxyphenol]
pest or weed control at 16 µg/mL (0.016 mg/mL (Table 3)): 46%
pest or weed control at 400 µg/mL (0.4 mg/mL (Table 3)): 83%
pest or weed control at 10000 µg/mL (10 mg/mL (Table 3)): 92%
pest or weed control at 1 %: > 90%
pest or weed control at 0.04 %: > 75%

CCOc1cc(C)ccc1O [compound 1303, 2-ethoxy-4-methylphenol]
pest or weed control at 16 µg/mL (0.016 mg/mL (Table 3)): 16%
pest or weed control at 400 µg/mL (0.4 mg/mL (Table 3)): 21%
pest or weed control at 10000 µg/mL (10 mg/mL (Table 3)): 100%
pest or weed control at 1 %: > 90%
mosquito landing within the two minutes of experiments: protect the attractive stimulus for any mosquito landing

COc1cc(CC=O)ccc1O [compound 1467, 2-(4-hydroxy-3-methoxyphenyl)acetaldehyde]
pest or weed control at 16 µg/mL (0.016 mg/mL (Table 3)): 29%
pest or weed control at 400 µg/mL (0.4 mg/mL (Table 3)): 84%
pest or weed control at 10000 µg/mL (10 mg/mL (Table 3)): 79%
pest or weed control at 0.04 %: > 75%

CCOc1cc(C=O)ccc1OC(=O)C(C)C [compound 1469, (2-ethoxy-4-formylphenyl) 2-methylpropanoate]
pest or weed control at 16 µg/mL (0.016 mg/mL (Table 3)): 64%
pest or weed control at 400 µg/mL (0.4 mg/mL (Table 3)): 65%
pest or weed control at 10000 µg/mL (10 mg/mL (Table 3)): 95%
pest or weed control at 1 %: > 90%
pest or weed control at 0.0016 % [1]: > 50%

COc1cc(C2CC=C(C)CO2)ccc1O (centres unmarked) [compound 1478, 2-methoxy-4-(5-methyl-3,6-dihydro-2H-pyran-2-yl)phenol]
pest or weed control at 16 µg/mL (0.016 mg/mL (Table 3)): 0%
pest or weed control at 400 µg/mL (0.4 mg/mL (Table 3)): 76%
pest or weed control at 10000 µg/mL (10 mg/mL (Table 3)): 73%
pest or weed control at 0.04 %: > 75%

COc1cc(C(C)OC)ccc1O (centres unmarked) [compound 1480, 2-methoxy-4-(1-methoxyethyl)phenol]
pest or weed control at 16 µg/mL (0.016 mg/mL (Table 3)): 66%
pest or weed control at 400 µg/mL (0.4 mg/mL (Table 3)): 61%
pest or weed control at 10000 µg/mL (10 mg/mL (Table 3)): 100%
pest or weed control at 1 %: > 90%
pest or weed control at 0.0016 % [1]: > 50%
mosquito landing within the two minutes of experiments: protect the attractive stimulus for any mosquito landing

COc1cc(C2CCCO2)ccc1O (centres unmarked) [compound 1481, 2-methoxy-4-(oxolan-2-yl)phenol]
pest or weed control at 16 µg/mL (0.016 mg/mL (Table 3)): 21%
pest or weed control at 400 µg/mL (0.4 mg/mL (Table 3)): 89%
pest or weed control at 10000 µg/mL (10 mg/mL (Table 3)): 97%
pest or weed control at 1 %: > 90%
pest or weed control at 0.04 %: > 75%

CCCc1cc(OC)c(O)c(OC)c1 [compound 1502, 2,6-dimethoxy-4-propylphenol]
pest or weed control at 3.2 µg/mL (0.0032 mg/mL (Table 1)): 0%
pest or weed control at 7.1 µg/mL: 0%
pest or weed control at 16 µg/mL (0.016 mg/mL (Table 1)): 32%
pest or weed control at 35.7 µg/mL (0.0357 mg/mL (Table 1)): 0%
pest or weed control at 53 µg/mL: 61%
pest or weed control at 80 µg/mL (0.08 mg/mL (Table 1)): 0%
pest or weed control at 119 µg/mL: 14%
pest or weed control at 178 µg/mL (0.178 mg/mL (Table 1)): 94%
pest or weed control at 267 µg/mL: 94%
pest or weed control at 400 µg/mL (0.4 mg/mL (Table 1)): 88%
pest or weed control at 598 µg/mL: 94%
pest or weed control at 890 µg/mL (0.89 mg/mL (Table 1)): 99%
pest or weed control at 2000 µg/mL (2 mg/mL (Table 1)): 96%
pest or weed control at 4470 µg/mL: 100%
pest or weed control at 10000 µg/mL (10 mg/mL (Table 1)): 96%

C=CC(C)CCCC(C)(C)OCC=Cc1ccc(O)c(OC)c1 (centres unmarked) [compound 1519, 4-{3-[(2,6-dimethyl-7-octen-2-yl)oxy]-1-propen-1-yl}-2-methoxyphenol]
pest or weed control at 16 µg/mL (0.016 mg/mL (Table 3)): 67%
pest or weed control at 400 µg/mL (0.4 mg/mL (Table 3)): 71%
pest or weed control at 10000 µg/mL (10 mg/mL (Table 3)): 95%
pest or weed control at 1 %: > 90%
pest or weed control at 0.0016 % [1]: > 50%

COc1cc(C=CC=O)ccc1O [compound 1527, 3-(4-hydroxy-3-methoxyphenyl)pro-2-enal]
Percentage of repellence of mosquitoes Aedes aegypti landing on the warm body (0.016 mg/mL (Table 3)): 69%
Percentage of repellence of mosquitoes Aedes aegypti landing on the warm body (0.4 mg/mL (Table 3)): 76%
Percentage of repellence of mosquitoes Aedes aegypti landing on the warm body (10 mg/mL (Table 3)): 71%
